Read-outs that look alike come from different tables or passages of the source.
What was measured:
[1] = cited from earlier work; for Know or P / Log Know or Log P: strobirulins, Table 2; for Log Know (P Log) / Know P: triazole fungicides, Table 01
[2] = Eiq risk indicator of pesticides (Kovach et al.; Eiq Calculator); settings: for Total Eiq (% of picoxystrobin): as percentage of the picoxystrobin value
Procedure: With all this complexity, the question that arises is: is there any risk indicator for the use of pesticides that is accurate, simple to use and easily understandable? So far, the best available option is the Eiq proposed by Kovach et al. (1992).
This indicator is calculated from a total of […] characteristics of pesticides: dermal toxicity, chronic toxicity, systemicity, toxicity to fish, leaching potential, potential for movement on the soil surface, toxicity to birds, time to degrade 50% in soil, toxicity to bees, toxicity to beneficial arthropods and time to degrade 50% on plant surface.
The total Eiq is characteristic of each active ingredient and corresponds to the average of three other more specific coefficients calculated from subgroups of the aforementioned characteristics: Eiq Ecological, Eiq for the worker and Eiq for the consumer.
The Eiq values are dimensionless and can be determined for 1 kg of the active ingredient (to compare the safety of different compounds) or per hectare treated (considers the variable effective dose of use). There are applications that do the calculation automatically such as Eiq Calculator (Cornell—CALS, 2018).

[3] = cited from earlier work; for ionization: strobirulins, Table 2; for Classification (dissociation) / Dissociation Constant - Pka: triazole fungicides, Table 01
[4] = cited from earlier work; for Solubility in water: triazole fungicides, Table 01; for Solubility-water: strobirulins, Table 2
[5] = cited from earlier work; for Consumer Eiq / Ecological Eiq / Total Eiq / Worker Eiq: for 1 kg of the compound; for Total Equi: per kg of compound, Table 2
[6] = strobirulins, Table 2; cited from earlier work
[7] = tested on: complex of diseases in soybean; test: LD50 of strobilurins, populations of different locations and dates of collection; settings: mean over locations and dates of collection
Procedure: Additional tests were conducted with populations with extreme values to verify the correlation of ED50 values with field efficiency and confirm this elevation in values. The same tests were installed in order to compare the most used strobilurins in soybean crops.
All estimated LD50 values were below 1 μg. mL−1, regardless of product, location and date of collection.
That said, it can be stated that the combination of triazole with greater intrinsic activity to strobilurin with the same characteristics makes OFA-T 0143/17 (prothioconazole+picoxystrobin) an excellent tool to assist in the integrated management of diseases in the soybean crop.

CON=C(C(=O)OC)c1ccccc1CON=C(C)c1cccc(C(F)(F)F)c1 [trifloxystrobin]
Know or P [1]: 31623 dimensionless
Total Equi [2]: 10.4 Units/Mol
more Eiq units required so that 10 g of the compound remained in the plant matrix, versus picoxystrobin ([2]; 14 days): 35.54%
ionization [3]: Non-ionizable

Fc1ccc([C@]2(Cn3cncn3)O[C@H]2c2ccccc2Cl)cc1 (racemic) [epoxiconazole]
Log Know (P Log) [1]: 3.3
Classification (dissociation) [3]: No dissociation

OC(Cc1ccccc1Cl)(Cn1nc[nH]c1=S)C1(Cl)CC1 (racemic) [prothioconazole, (RS)-2-[2-(1-chlorocyclopropyl)-3-(2-chlorophenyl)-2-hydroxypropyl]-2,4-dihydro1,2,4-triazole-3-thione]
Solubility in water [4]: 22.5 mg/L or PPM
Know P [1]: 100
Log Know (P Log) [1]: 2
Consumer Eiq ([2]; dose of 96 g a.i./ha): 1.008
Ecological Eiq ([2]; dose of 96 g a.i./ha): 5.33
Total Eiq ([2]; dose of 96 g a.i./ha): 2.58
Worker Eiq ([2]; dose of 96 g a.i./ha): 1.33
Consumer Eiq [5]: 10.5
Ecological Eiq [5]: 55.5
Total Eiq [5]: 26.9
Worker Eiq [5]: 13.9
Classification (dissociation) [3]: Weak acid
Dissociation Constant - Pka [3]: 6.9

COC(=O)N(OC)c1ccccc1COc1ccn(-c2ccc(Cl)cc2)n1 [pyraclostrobin]
Solubility-water [4]: 1.5 mg/L or PPM
Know or P [1]: 9772 dimensionless
Total Eiq (% of picoxystrobin) ([2]; Units/Kg): 197.4%
Total Eiq (% of picoxystrobin) ([2]; Units/Mol): 208.5%
Total Eiq ([2]; per Mol of compound, Table 2): 9.0 Units/Mol
Total Equi [5]: 23.1 Units/Kg
RL50 in plants [6]: 4.7 days
LD50 mean [7]: 0.21 µg/mL
ionization [3]: Non-ionizable

FC(F)C(F)(F)OCC(Cn1cncn1)c1ccc(Cl)cc1Cl (stereo not drawn) [tetraconazole]
Log Know (P Log) [1]: 3.56
Classification (dissociation) [3]: Strong acid

O=c1c2cc(F)ccc2nc(-n2cncn2)n1-c1ccc(Cl)cc1Cl [fluquinconazole]
Log Know (P Log) [1]: 3.24
Classification (dissociation) [3]: Strong acid
Dissociation Constant - Pka [3]: 0.9

CCCC(Cn1cncn1)c1ccc(Cl)cc1Cl (stereo not drawn) [penconazole]
Classification (dissociation) [3]: Very weak base
Dissociation Constant - Pka [3]: 1.51

CCCC1COC(Cn2cncn2)(c2ccc(Cl)cc2Cl)O1 (stereo not drawn) [propiconazole]
Solubility in water [4]: 150 mg/L or PPM
Log Know (P Log) [1]: 3.72
Classification (dissociation) [3]: Very weak base
Dissociation Constant - Pka [3]: 1.09

CC1(C)CCC(Cc2ccc(Cl)cc2)C1(O)Cn1cncn1 (stereo not drawn) [metconazole]
Log Know (P Log) [1]: 3.85
Classification (dissociation) [3]: Very weak acid

CC1(C)CCC(=Cc2ccc(Cl)cc2)C1(O)Cn1cncn1 (stereo not drawn) [triticonazole]
Log Know (P Log) [1]: 3.29
Classification (dissociation) [3]: No dissociation

CC1COC(Cn2cncn2)(c2ccc(Oc3ccc(Cl)cc3)cc2Cl)O1 (stereo not drawn) [diphenococonazole]
Log Know (P Log) [1]: 4.36
Classification (dissociation) [3]: Strong acid
Dissociation Constant - Pka [3]: 1.07

CC(C)(C)C(O)/C(=C\c1ccc(Cl)cc1)n1cncn1 (stereo not drawn) [uniconazole]
Solubility in water [4]: 8.41 mg/L or PPM
Log Know (P Log) [1]: 3.84
Classification (dissociation) [3]: Very weak acid
Dissociation Constant - Pka [3]: 13.07

CC(C)(C)C(O)(CCc1ccc(Cl)cc1)Cn1cncn1 (stereo not drawn) [tebuconazole]
Log Know (P Log) [1]: 3.7
Classification (dissociation) [3]: Weak acid

Clc1ccc(C2(Cn3cncn3)OCCO2)c(Cl)c1 [azaconazole]
Solubility in water [4]: 300 mg/L or PPM
Know P [1]: 229.1
Log Know (P Log) [1]: 2.36
Classification (dissociation) [3]: Very weak base
Dissociation Constant - Pka [3]: 3

CO/C=C(/C(=O)OC)c1ccccc1Oc1cc(Oc2ccccc2C#N)ncn1 [azoxystrobin]
Solubility-water [4]: 6.7 mg/L or PPM
Know or P [1]: 316 dimensionless
Log Know or Log P [1]: 2.5 dimensionless
Total Eiq (% of picoxystrobin) ([2]; Units/Kg): 196.6%
Total Eiq (% of picoxystrobin) ([2]; Units/Mol): 215.7%
Total Eiq ([2]; per Mol of compound, Table 2): 9.3 Units/Mol
Total Equi [5]: 23.0 Units/Kg
RL50 in plants [6]: 7.0 days
LD50 mean [7]: 0.23 µg/mL
ionization [3]: Non-ionizable

Clc1ccc(C2(Cn3cncn3)CC(Br)CO2)c(Cl)c1 (stereo not drawn) [bromuconazole]
Solubility in water [4]: 48.3 mg/L or PPM
Log Know (P Log) [1]: 3.24
Classification (dissociation) [3]: Strong acid
Dissociation Constant - Pka [3]: 2.75

CCCCC(O)(Cn1cncn1)c1ccc(Cl)cc1Cl (stereo not drawn) [hexaconazole]
Log Know (P Log) [1]: 3.9
Classification (dissociation) [3]: Strong acid

N#CC(CCc1ccc(Cl)cc1)(Cn1cncn1)c1ccccc1 (stereo not drawn) [fenbuconazole]
Solubility in water [4]: 2.47 mg/L or PPM
Log Know (P Log) [1]: 3.79
Classification (dissociation) [3]: No dissociation

CC(C1CC1)C(O)(Cn1cncn1)c1ccc(Cl)cc1 (stereo not drawn) [cyproconazole]
Log Know (P Log) [1]: 3.09
Classification (dissociation) [3]: No dissociation

CO/C=C(/C(=O)OC)c1ccccc1COc1cccc(C(F)(F)F)n1 [picoxystrobin, (E)-3-methoxy-2-{2-[6-(trifluoromethyl)-2-pyridyloxymethyl]phenyl}methyl acrylate]
Solubility-water [4]: 3.1 mg/L or PPM
Know or P [1]: 3981 dimensionless
Log Know or Log P [1]: 3.6 dimensionless
Total Eiq (% of picoxystrobin) ([2]; Units/Kg): 100.0%
Total Eiq (% of picoxystrobin) ([2]; Units/Mol): 100.0%
Consumer Eiq ([2]; dose of 80g a.i./ha): 0.408
Ecological Eiq ([2]; dose of 80g a.i./ha): 2.00
Total Eiq ([2]; dose of 80g a.i./ha): 0.936
Worker Eiq ([2]; dose of 80g a.i./ha): 0.408
Total Eiq ([2]; per Mol of compound, Table 2): 4.3 Units/Mol
average reduction of risks for consumers, workers and the environment versus azoxystrobin ([2]; per kg): 49.13%
average reduction of risks for consumers, workers and the environment versus pyraclostrobin ([2]; per kg): 49.35%
average reduction of risks for consumers, workers and the environment versus trifloxystrobin ([2]; per kg): 54.12%
total Eiq value expressed as a percentage of the value observed for azoxystrobin ([2]; per kg): 50.87%
total Eiq value expressed as a percentage of the value observed for pyraclostrobin ([2]; per kg): 50.65%
total Eiq value expressed as a percentage of the value observed for trifloxystrobin ([2]; per kg): 45.88%
Consumer Eiq [5]: 5.1
Ecological Eiq [5]: 25.0
Total Eiq [5]: 11.7
Worker Eiq [5]: 5.1
Total Equi [5]: 11.7 Units/Kg
RL50 in plants [6]: 6.9 days
LD50 mean [7]: 0.18 µg/mL
ionization [3]: Non-ionizable

Reference: patent US20240032539A1, “CONCENTRATED FUNGICIDE COMPOSITION OF PROTHIOCONAZOLE AND PICOXYTROBIN” (priority 2020, published 2024)
